Experimental data from the supplement of paper PMC4862054.

Assays:
Settings in all cases: incubation time: 72 h
[1] = tested on: MDA-MB-231; test: normalised response (% of control), CellTox Green; higher = less cell death (100 = DMSO, 0 = benzethonium chloride kill control)
Method in brief: (§1)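 Values are normalised signals, each belonging to one concentration of the series. Breast cancer cells (20 µl suspension) were seeded into 384-well plates with compound at 5 concentrations in 10-fold steps over a compound-specific 10,000-fold range and incubated 72 h. Readouts were CellTox Green fluorescence (485/520 nm), then CellTiter-Glo luminescence after 10 min at room temperature, with each plate set to 0.1 % DMSO as 100 and a positive kill control as 0.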

[2] = tested on: CAL-120; test: as above
Method in brief: as §1

[3] = tested on: MDA-MB-436; test: as above
Method in brief: as §1

[4] = tested on: CAL-148; test: as above
Method in brief: as §1

[5] = tested on: MCF-10A; test: as above
Method in brief: as §1

[6] = tested on: BT-549; test: as above
Method in brief: as §1

[7] = tested on: HCC1937; test: as above
Method in brief: as §1

[8] = tested on: HCC1599; test: as above
Method in brief: as §1

[9] = tested on: MDA-MB-453; test: as above
Method in brief: as §1

[10] = tested on: CAL-51; test: as above
Method in brief: as §1

[11] = tested on: Hs578T; test: as above
Method in brief: as §1

[12] = tested on: DU-4475; test: as above
Method in brief: as §1

[13] = tested on: BT-474; test: as above
Method in brief: as §1

[14] = tested on: HDQ-P1; test: as above
Method in brief: as §1

[15] = tested on: CAL-85-1; test: as above
Method in brief: as §1

[16] = tested on: MFM-223; test: as above
Method in brief: as §1

[17] = tested on: HCC1143; test: as above
Method in brief: as §1

[18] = tested on: MDA-MB-231; test: normalised response (% of control), CellTiter-Glo; higher = more viable cells (100 = DMSO, 0 = benzethonium chloride kill control)
Method in brief: as §1

[19] = tested on: CAL-120; test: as above
Method in brief: as §1

[20] = tested on: MDA-MB-468; test: as above
Method in brief: as §1

[21] = tested on: MDA-MB-436; test: as above
Method in brief: as §1

[22] = tested on: CAL-148; test: as above
Method in brief: as §1

[23] = tested on: MCF-10A; test: as above
Method in brief: as §1

[24] = tested on: BT-549; test: as above
Method in brief: as §1

[25] = tested on: HCC1937; test: as above
Method in brief: as §1

[26] = tested on: HCC1599; test: as above
Method in brief: as §1

[27] = tested on: MDA-MB-453; test: as above
Method in brief: as §1

[28] = tested on: CAL-51; test: as above
Method in brief: as §1

[29] = tested on: SK-BR-3; test: as above
Method in brief: as §1

[30] = tested on: Hs578T; test: as above
Method in brief: as §1

[31] = tested on: DU-4475; test: as above
Method in brief: as §1

[32] = tested on: BT-474; test: as above
Method in brief: as §1

[33] = tested on: HDQ-P1; test: as above
Method in brief: as §1

[34] = tested on: CAL-85-1; test: as above
Method in brief: as §1

[35] = tested on: MFM-223; test: as above
Method in brief: as §1

[36] = tested on: HCC1143; test: as above
Method in brief: as §1

[37] = tested on: MDA-MB-468; test: normalised response (% of control), CellTox Green; higher = less cell death (100 = DMSO, 0 = benzethonium chloride kill control)
Method in brief: as §1

SMILES | normalised response [1] [%] | normalised response [2] [%] | normalised response [3] [%] | normalised response [4] [%] | normalised response [5] [%] | normalised response [6] [%] | normalised response [7] [%] | normalised response [8] [%] | normalised response [9] [%] | normalised response [10] [%] | normalised response [11] [%] | normalised response [12] [%] | normalised response [13] [%] | normalised response [14] [%] | normalised response [15] [%] | normalised response [16] [%] | normalised response [17] [%] | normalised response [18] [%] | normalised response [19] [%] | normalised response [20] [%] | normalised response [21] [%] | normalised response [22] [%] | normalised response [23] [%] | normalised response [24] [%] | normalised response [25] [%] | normalised response [26] [%] | normalised response [27] [%] | normalised response [28] [%] | normalised response [29] [%] | normalised response [30] [%] | normalised response [31] [%] | normalised response [32] [%] | normalised response [33] [%] | normalised response [34] [%] | normalised response [35] [%] | normalised response [36] [%] | normalised response [37] [%]
CC[C@H](CO)Nc1nc(NCc2ccccc2)c2ncn(C(C)C)c2n1 [Seliciclib] (1000 nM) | 114 | 101 | 84.6 | 106 | 101 | 117 | 125 | 103 | 102 | 101 | 86.4 | 99.2 | 101 | 92.7 | 95.5 | 95.6 | 107 | 104 | 97.4 | 110 | 107 | 104 | 95.3 | 95.8 | 105 | 111 | 115 | 80.4 | 106 | 109 | 101 | 96.9 | 101 | 112 | 109 | 103 | –
C=CCN(/C=C1/C(=O)O[C@H](COC)[C@@]2(C)C1=C(O)C(=O)C1=C2[C@H](OC(C)=O)C[C@]2(C)C(=O)CC[C@@H]12)CC=C [Sonolisib] (10 nM) | – | – | – | – | – | – | – | – | – | – | – | – | – | – | – | – | – | 102 | 101 | 101 | 111 | 107 | 105 | 102 | 106 | 95.1 | 104 | 108 | 123 | 97.9 | 106 | 112 | 94.4 | 102 | 109 | 107 | –
C=CCN(/C=C1/C(=O)O[C@H](COC)[C@@]2(C)C1=C(O)C(=O)C1=C2[C@H](OC(C)=O)C[C@]2(C)C(=O)CC[C@@H]12)CC=C [Sonolisib] (1000 nM) | 111 | 102 | 103 | 109 | 66.6 | 112 | – | 115 | 109 | 104 | 89.7 | 104 | 95.1 | 98.1 | 97 | 104 | 82.6 | 103 | 102 | 102 | 112 | 109 | 97.6 | 97.4 | 99.8 | 110 | 105 | 77.5 | 105 | 99.2 | 99 | 106 | 101 | 105 | 107 | 102 | 112
O=[N+]([O-])c1ccc2c(c1)S(=O)(=O)C=C2 [Stattic] (5 nM) | – | – | – | – | – | – | – | – | – | – | – | – | – | – | – | – | – | 96.2 | 95.3 | 99.8 | 99.5 | 103 | 111 | 105 | 94.6 | 114 | 106 | 102 | 99.3 | 104 | 106 | 98.6 | 98.8 | 95.5 | 101 | 101 | –
CC(C)n1cnc2c(NCCc3ccc(O)cc3)nc(-c3csc4ccccc34)nc21 [StemRegenin 1] (1 nM) | – | – | – | – | – | – | – | – | – | – | – | – | – | – | – | – | – | 99.7 | 96.6 | 92.6 | 105 | 98.7 | 106 | 96.7 | 98.6 | 99.6 | 115 | 81.3 | 108 | 104 | 102 | 102 | 103 | 99.2 | 103 | 98.1 | –
CC(C)n1cnc2c(NCCc3ccc(O)cc3)nc(-c3csc4ccccc34)nc21 [StemRegenin 1] (10 nM) | – | – | – | – | – | – | – | – | – | – | – | – | – | – | – | – | – | 97.5 | 97.4 | 97.3 | 96.1 | 109 | 105 | 92.2 | 96.3 | 79.5 | 103 | 68.8 | 98.3 | 109 | 100 | 105 | 99.6 | 96.9 | 102 | 106 | –
